According to patent US20170224833A1, “SELF-ASSEMBLING MOLECULES THAT ACCUMULATE IN ACIDIC TUMOR MICROENVIRONMENTS” (OHIO STATE INNOVATION FOUNDATION, priority 2014, published 2017):
Residues, ends and D or L forms follow the SMILES beside them. No end group written: not given here. *: point of attachment. Rubipy = bis(2,2'-bipyridine)-4'-methyl-4-carboxybipyridine ruthenium(II), conjugated to the lysine epsilon-amine; Palmitoyl = CCCCCCCCCCCCCCCC(=O)*

Tests used:
Type in all cases: physicochemical
[1] = MRI r1 relaxivity measurement, 1.5 Tesla; conditions: control standard, 1.5 T
Protocol: An MR relaxometry phantom was built by fixing 5 mm NMR sample tubes containing PA samples at a concentration of 500 μM and pH values 4 and 10 in a 600 ml beaker filled with deionized water. The samples also contained 150 mM NaCl and 2.2 mM CaCl2. The phantom was scanned on a 1.5 Tesla Signa Excite MRI scanner using an 8-channel phased-array head coil (GE Healthcare, Milwaukee, Wis., USA). R relaxometry data were acquired using an Inversion Recovery Fast Spin-Echo (IR-FSE) sequence with the following parameters: inversion time TI=50/100/200/400/600/800/1200/1600/3200 ms; repetition time TR=8000 ms; echo time TE=11 ms; echo train length=10; 90° flip angle; 100×100 mm^2 field-of-view (FOV); 0.5 mm in-plane resolution; 2 mm slice thickness; single coronal slice placed at the center of the phantom. Sample longitudinal relaxation rates (R1) were calculated by fitting the MR signal intensities observed at different TIs (S(TI)) to a three parameter model [Lu et al., MRM 2004]:
S(TI)=|S0×(1−C×exp(−TI×R1))|
Where S0 is the equilibrium signal, C is a constant accounting for imperfect inversion of magnetization. The r1 relaxivity was calculated as the slope in the linear relationship between sample concentrations and their R1 relaxation rates.

[2] = Circular dichroism (CD) spectroscopy of pH-triggered self-assembly transition in 150 mM NaCl, 2.2 mM CaCl2; conditions: for CD Transition pH: 10 μM PA, 150 mM NaCl, 2.2 mM CaCl2, random coil to β-sheet
Protocol: The target PA concentration (10 μM) was below the detectable limit of conventional techniques to determine the morphology such as cryoTEM and small-angle X-ray scattering. Consequently, circular dichroism (CD) spectroscopy was initially used to characterize the morphology of these PAs at various pH values. PA1 was the first molecule synthesized that underwent a self-assembly transition in the desired pH range of 6.6-7.4 at 10 μM PA concentration, in 150 mM NaCl and 2.2 mM CaCl2 (FIG. 2A) (Goldberger, J. E., et al. Angew. Chem. Int. Ed. 2011 50:6292-95). […] The transition pH from random coil to β-sheet occurred at a pH of 6.6. The transition pH was defined as the value at which the ellipticity at 205 nm rises to zero, followed by the appearance of a minimum at 218-220 nm.
Measurements were done on a Jasco-815 Circular Dichroism spectrometer using 1 cm path length quartz cuvettes. 10 μM solutions of peptide amphiphiles were prepared in 150 mM NaCl and 2.2 mM CaCl2 by dilution from a concentrated PA stock (0.5-1 mM, pH 9). Double de-ionized Milli-Q water was used for preparing all solutions. The solutions were then heated at 80° C. for 30 minutes in a water bath and gradually cooled to room temperature. An Accumet XL15 pH meter (Fisher Scientific) coupled with an Orion Ross Ultra semi-micro electrode (8103BNUWP, Thermo Scientific) was used to adjust the pH of the solution to the desired value followed by collection of the CD spectra Each trace shown was averaged over 3 accumulations and was baseline subtracted using aqueous solutions containing salts only. All spectra are cut-off below 205 nm due to absorption by NaCl and CaCl2.
Measurements were done on a Jasco-815 Circular Dichroism spectrometer using 0.5-1 cm path length quartz cuvettes. 500-10 μM of either pure PA or PA mixtures were prepared in 150 mM NaCl and 2.2 mM CaCl2 (and 1.8 mM 20 kDa PEG in select samples) by dilution from a concentrated PA stock (0.5-1 mM, pH 9). Double de-ionized Milli-Q water was used for preparing all solutions. The solutions were then heated at 80° C. for 30 minutes in a water bath and gradually cooled to room temperature. An Accumet XL15 pH meter (Fisher Scientific) coupled with an Orion Ross Ultra semi-micro electrode (8103BNUWP, Thermo Scientific) was used to adjust the pH of the solution to the desired value followed by collection of the CD spectra. Each trace shown was averaged over 3 accumulations and was baseline subtracted using aqueous solutions containing salts only. All spectra are cut-off below 200 nm due to absorption by NaCl and CaCl2. The same procedure was followed for the salt control samples with 3.0 and 4.0 mM CaCl2.
Self-assembly behavior is known to be extremely sensitive to minor changes in monomer structure and presence of impurities. […] CAC measurements via the pyrene 1:3 method (Das, D. et al. J. Colloid Interface Sci. 2008, 327:198) were used to ascertain the single molecule to spherical micelle transitions at varying pH values (FIGS. 24A-24C). CD Spectroscopy was used to determine the pH points at which different concentrations (10-500 μM) of the PA molecules transitioned from a random coil to a β-sheet secondary structure (FIGS. 25A-25C). It has been previously shown that the random coil and β-sheet structures correspond to spherical micellar/isolated molecule and nanofiber morphologies respectively (Ghosh, A. et al. J. Am. Chem. Soc. 2012, 134:3647). The CD transition point was defined to be the pH value at which the ellipticity at 200 nm rose from a negative value (random coil) to zero accompanied by the appearance of a minimum at 218-220 nm. The addition of PA66 shifted the CD transition pH to more basic values by ˜0.6 pH units. […] This ˜0.6 pH shift in CD transition pH to more basic values were also observed when 1.5% of PA67 was added to PA65. […]

[3] = pH titration of peptide amphiphiles (pKa); conditions: 10 μM
Protocol: The titration measurements were conducted on 10 μM peptide amphiphile solutions prepared in 150 mM NaCl and 2.2 mM CaCl2 using milli-Q water. The solution was heated at 80° C. for 30 minutes followed by slow cooling at room temperature. The pH of the solution was then adjusted to 4 using HCl. Finally, an Accumet XL15 pH meter (Fisher Scientific) coupled with an Orion Ross Ultra semi-micro electrode (8103BNUWP, Thermo Scientific) was used to track changes in pH of the solution as NaOH solution was added in small increments. pKa values were obtained from the second inflection points of the first derivative plots of the titration data. The first transition corresponds to neutralization of excess HCl. The calculated pKas reflect the average pKa for all four glutamic acids.

[4] = Fluorescence anisotropy (FA) in mouse blood serum (pure or diluted); conditions: only 1.5% PA67 isolated molecules in serum (control)
Protocol: Fluorescence and FA measurements were done using 20-100 μM of PA mixtures in 150 mM NaCl and 2.2 mM CaCl2 and various serum (MP Biomedicals) concentrations (0.75-100% v/v) diluted in the same salt buffer. PA samples in serum or MSA were not heated and cooled. All samples were then pH adjusted using HCl/NaOH solutions, transferred to a 96-well plate followed by collection of fluorescence emission from PA-(Rubipy)3 first parallel (Ipar) and then perpendicular (Iperp) to the excitation polarization using a hybrid reader fluorimeter (BioTek Synergy H4) at room temperature. The excitation wavelength used was 458 nm and the emission was monitored using a 640/20 nm filter. The same method was followed for control experiments involving serum background samples, dye conjugated MSA, only 1.5% PA-(Rubipy)3 in serum and 100 μM PA mixture in MSA and salt buffer. FA was calculated using the following equation: […]

[5] = Transmission electron microscopy (TEM) of self-assembled morphology
Protocol: TEM images were obtained using solutions of either 10 μM or 0.5 mM peptide amphiphile concentration, as well as 150 mM NaCl and 2.2 mM CaCl2 in Milli-Q water. The solutions were first heated at 80° C. for 30 minutes in a water bath and then gradually cooled to room temperature. This was followed by pH adjustment using either HCl or NaOH. 5 μL of this solution was pipetted onto a Carbon Formvar grid (Electron Microscopy Sciences) and allowed to sit for 2 minutes before being wicked dry using filter paper. For the 10 μM experiments that were performed to determine the time dependence of nanofiber formation, solutions were dropcast onto the grid within three minutes of pH adjustment. The samples were then negatively stained using 1 wt % uranyl acetate and imaged under a FEI Tecnai G2 Bio TWIN TEM system, operating at 100 kV. All TEM experiments were performed in triplicate, using at least three different freshly prepared solutions and grids. […]
TEM images were obtained at various concentrations and pH values, with 150 mM NaCl and 2.2 mM CaCl2 in deionized water. Solutions were heated at 80° C. for 30 minutes and gradually cooled to room temperature. Following temperature equilibration, pH adjustment was achieved using HCl or NaOH. 5 μL of this solution was pipetted onto a Carbon Formvar grid (Electron Microscopy Sciences) and allowed to sit for 2 minutes before being wicked dry using filter paper strips. The samples were negatively stained with 1 wt % uranyl acetate and imaged under a FEI Tecnai G2 Bio TWIN TEM system operating at 100 kV.
Transmission electron microscopy was employed to confirm the self-assembled morphology at different pH values and concentrations. The sample to be tested was basified to a pH of 10, stirred at 90° C. in an oil bath for 30 minutes and cooled to room temperature. The pH was then adjusted with HCl and NaOH to set the peptide solution (in 150 mM NaCl and 2.2 mM CaCl2) to a pH of either 5 or 9. Once the desired pH was reached, 5 μL of the sample was placed and spread onto a Carbon Formvar grid (Electron Microscopy Sciences) and allowed to sit for one minute before being wicked dry with filter paper. A 1 wt % uranyl acetate solution was added and spread over the grid to negatively stain the sample, and was wicked dry immediately after application. The grid was then examined by a FEI Tecnai G2 Biotwin TEM at 100 keV. The diameters of each self-assembled morphology was determined via averaging at least 30 different objects.

[6] = basic to acidic transition from small molecule to cylindrical nanofiber, simulated serum environment
[7] = basic to acidic transition from spherical micelle to cylindrical fiber, simulated serum environment (150 mM NaC, 2.2 mM CaCl2)

CNC[C@H](O)[C@@H](O)[C@H](O)[C@H](O)CO.CNC[C@H](O)[C@@H](O)[C@H](O)[C@H](O)CO.O=C([O-])CN(CCN(CC(=O)[O-])CC(=O)O)CCN(CC(=O)[O-])CC(=O)O.[Gd+3] [Magnevist, reference compound]
relaxivity of water protons [1]: 4.5 mM⁻¹ s⁻¹

CCCCCCCCCCCCCCCC(=O)N[C@@H](Cc1ccccc1)C(=O)N[C@@H](C)C(=O)N[C@@H](C)C(=O)N[C@@H](C)C(=O)N[C@@H](CCC(=O)O)C(=O)N[C@@H](CCC(=O)O)C(=O)N[C@@H](CCC(=O)O)C(=O)N[C@@H](CCC(=O)O)C(N)=O [PA2] (Palmitoyl-FAAAEEEE-NH2)
CD Transition pH [2]: 6.6
pH transition point at 10 μm PA [2, 6]: 6.6

CCCCCCCCCCCCCCCC(=O)N[C@@H](Cc1ccc(O)cc1)C(=O)N[C@@H](C)C(=O)N[C@@H](C)C(=O)N[C@@H](C)C(=O)N[C@@H](CCC(=O)O)C(=O)N[C@@H](CCC(=O)O)C(=O)N[C@@H](CCC(=O)O)C(=O)N[C@@H](CCC(=O)O)C(N)=O [PA4] (Palmitoyl-YAAAEEEE-NH2)
CD Transition pH [2]: 6.0
pH transition point at 10 μm PA [2, 6]: 6.0
glutamic acids in the deprotonated form at the transition [3]: 91%

Palmitoyl-IAAAEEEEK(DO3A:Lu)-NH2 (Palmitoyl-IAAAEEEEK(DO3A)-NH2; also: DO3A chelates Lu) [PA8]
pH transition point at 10 μm PA [2, 7]: 5.7

Palmitoyl-IAAAEEEEK(DO3A:Tb)-NH2 (Palmitoyl-IAAAEEEEK(DO3A)-NH2; also: DO3A chelates Tb) [PA7]
pH transition point at 10 μm PA [2, 7]: 5.7

Palmitoyl-MAAAEEEEK-Rubipy (Palmitoyl-MAAAEEEEK(Rubipy); not fully specified (C-terminus); printed as Palmitoyl-MAAAEEEEK-Rubipy) [PA67]
FA, constant independent of pH [4]: ~0.05

Palmitoyl-VAAAEEEEK(DO3A:Gd)-NH2 (Palmitoyl-VAAAEEEEK(DO3A)-NH2; also: DO3A chelates Gd) [PA6]
pH transition point at 10 μm PA [2, 7]: 5.3
nanofiber to micelle transition pH, lower than PA5 ([2]; for each concentration (10 μM, 500 μM)): 0.4 units

Palmitoyl-VAAAEEKE-NH2 [PA11]
pH transition point at 10 μm PA [2, 6]: 6.2

Palmitoyl-YAAAEEEEK(DO3A:Gd)-NH2 (Palmitoyl-YAAAEEEEK(DO3A)-NH2; also: DO3A chelates Gd) [PA9]
pH transition point at 10 μm PA [2, 7]: 5.1

palmitoyl-YYAAEEEEK(DO3A:Gd)-NH2 [PA73]
CD pattern ([2]; 10 μM, pH 5-11): β-sheet pattern
nanofiber diameter ([5]; 500 μM, pH 5): 8.5±1.0 nm
nanofiber diameter ([5]; 500 μM, pH 9): 8.6±0.9 nm

pentadecyl-YYAAEEEEK(DO3A:Gd)-NH2 [PA75]
micelle to nanofiber transition pH, more basic than PA74 ([2]; all concentrations observed): 0.15-0.63 pH units
nanofiber diameter ([5]; FIG. 50: pH 5, PA74 500 μM, PA75 100 μM): 8.1±1.3 nm
morphology by TEM ([5]; pH 5, PA74 500 μM, PA75 100 μM): nanofiber morphology
morphology by TEM ([5]; pH 9, PA74 500 μM, PA75 100 μM): spherical micelle morphology
